Entries after “also recorded” stand apart in the source; their conditions may differ.
System: M1 macrophages and M2 macrophages differentiated from mouse bone marrow cells
Experiment: Subtype identification by staining and flow cytometry of M1 and M2 macrophages differentiated from mouse bone marrow cells
Type: cell-based, Balb/c mouse
Description: The culture of subtypes was performed according to a protocol described in NPL 7. Specifically, bone marrow cells collected from the femur of a Balb/c mouse of 8 to 10 weeks old were dispersed to a concentration of 1×10^6/mL in an IMDM containing 20% FBS and 1% P/S, and 1×10^7 cells were seeded in a 100 mm dish. After further adding an M-CSF (manufactured by Pepro Tech) thereto to a concentration of 50 ng/mL, the cells were incubated for 3 to 4 days in the presence of 5% CO2 at 37° C., so as to differentiate macrophage precursor cells to macrophages. After exchanging the medium, the M-CSF was added to a concentration of 50 ng/mL, and the incubation was performed for further 3 to 4 days in the presence of 5% CO2 at 37° C., and then, the resulting cells were differentiated to macrophage. By adding 200 ng of interferon-γ and 1 μg of […] (both manufactured by Pepro Tech) to the IMDM containing 5% FBS and 1% P/S, the cells were differentiated to the subtype M1. Besides, by adding 100 ng of IL-4 to the IMDM containing 5% FBS and 1% P/S, the cells were differentiated to the subtype M2. After performing the incubation for further 3 days in the presence of 5% CO2 at 37° C., the resultant was rinsed with PBS, and PBS containing 0.25% trypsin and 1 mM EDTA (ethylenediaminetetraacetic acid) was used for collecting, from the dish, the macrophages having been differentiated to the subtypes M1 and M2.
Thereafter, the tube was centrifuged at 180 G for 10 minutes to remove the supernatant, a dye for identifying dead cells (aqua fluorescent reactive dye, manufactured by Invitrogen; which is hereinafter sometimes abbreviated as aqua) was added thereto, and the resultant was incubated at 4° C. for 10 minutes. Subsequently, the tube was centrifuged at 180 G for 10 minutes to remove the supernatant, cells were suspended in a FACS buffer to be analyzed by using FACSCanto (trademark) II flow cytometry apparatus manufactured by BD.
The analysis was performed on a cell population showing a low signal for the aqua, so as to analyze a cell population from which dead cells were eliminated. […] A histogram was prepared by plotting fluorescence intensity obtained in the FITC channel on the abscissa and plotting the number of cells at each fluorescence intensity on the ordinate, which is shown in FIG. 2.
Histograms were prepared by plotting fluorescence intensities obtained in the respective channels on the abscissa and plotting the numbers of cells at each fluorescence intensity on the ordinate. A difference between a fluorescence intensity (FM1) at a peak top of the histogram of the M1 macrophage and a fluorescence intensity (FM2) at a peak top of the histogram of the M2 macrophage is divided by a sum of a peak width (WM1) of the histogram of the M1 macrophage and a peak width (WM2) of the histogram of the M2 macrophage, so as to obtain a resolution R, which was used as an index of the identification ability for a subtype (see the following expression (1)). Resolution R=|FM1−FM2|/(WM1+WM2) Expression (1)

[1] = M1 vs M2 macrophages from mouse bone marrow cells, general formula (6) dyes (Table 7)
[2] = class based on resolution R, general formula (6) dyes (Table 7)
[3] = mouse bone marrow-derived M1 macrophages, channel listed per compound, general formula (6) dyes (Table 7)
[4] = mouse bone marrow-derived M2 macrophages, channel listed per compound, general formula (6) dyes (Table 7)
[5] = M1 vs M2 macrophages from mouse bone marrow cells, general formula (10) dyes (Table 8)
[6] = class based on resolution R, general formula (10) dyes (Table 8)
[7] = mouse bone marrow-derived M1 macrophages, channel listed per compound, general formula (10) dyes (Table 8)
[8] = mouse bone marrow-derived M2 macrophages, channel listed per compound, general formula (10) dyes (Table 8)
[9] = R=|FM1−FM2|/(WM1+WM2), compound 1 μM
[10] = fluorescence intensity at peak top of histogram, compound 1 μM, 37° C., 30 minutes
[11] = M1 vs M2 macrophages from mouse bone marrow cells, general formula (11) dyes (Table 9)
[12] = class based on resolution R, general formula (11) dyes (Table 9)
[13] = mouse bone marrow-derived M1 macrophages, channel listed per compound, general formula (11) dyes (Table 9)
[14] = mouse bone marrow-derived M2 macrophages, channel listed per compound, general formula (11) dyes (Table 9)

For `CN1/C(=C\C=C\C2=[N+](C)c3ccccc3C2(C)C)C(C)(C)c2ccccc21` [(95)], the “Resolution ratio R” value [1] was 0.421, the “Evaluation of macrophage subtype identification” value (shortened to “Evaluation”) [2] was “B (the compound is good in the subtype identification (namely, the resolution R is 0.15 or more and less than 0.5))” and the “Peak position of M1 macrophage” value [3] was 71.57. For the same compound, the “Peak position of M2 macrophage” value [4] was 133.45.
`CC1(C)CCN2CCC(C)(C)c3c2c1cc1cc(-c2nc4ccccc4s2)c(=O)oc31` [(138)] was tested, and the “Resolution ratio R” value [5] was 0.312, the “Evaluation” value [6] was “B (the compound is good in the subtype identification (namely, the resolution R is 0.15 or more and less than 0.5))” and the “Peak position of M1 macrophage” value [7] was 20.6. The “Peak position of M2 macrophage” value [8] was 28.0.
With `COc1ccc(N2c3ccc(/C=C/C4=[N+](C)c5ccccc5C4(C)C)cc3C3CCCC32)cc1` (stereo not shown) [(62)] the “Resolution ratio R” value [9] was 0.561, the “Peak position of M1 macrophage” value [10] was 193 and the “Peak position of M2 macrophage” value [10] was 333. The “Evaluation” value (rated from resolution R) was “A (The compound is very good in the subtype identification (namely, the resolution R is 0.5 or more))” and the Selectivity (subtype strongly stained) was “M2”.
With `O=C(O)CN1C(=O)/C(=C\c2ccc3c(c2)C2CCCC2N3c2ccccc2)SC1=S` (stereo not shown) [(24)] the “Resolution ratio R” value [9] was 0.347, the “Peak position of M1 macrophage” value [10] was 18.1 and the “Peak position of M2 macrophage” value [10] was 27.6. For the same compound, the “Evaluation” value (rated from resolution R) was “B (the compound is good in the subtype identification (namely, the resolution R is 0.15 or more and less than 0.5))”.
For `CSc1ccc(N2c3ccc(/C=C4/SC(=S)N(CC(=O)O)C4=O)cc3C3CCCC32)cc1` (stereo not shown) [(30)], the “Resolution ratio R” value [9] was 0.257, the “Peak position of M1 macrophage” value [10] was 55.1 and the “Peak position of M2 macrophage” value [10] was 73.9. For the same compound, the “Evaluation” value (rated from resolution R) was “B (the compound is good in the subtype identification (namely, the resolution R is 0.15 or more and less than 0.5))”.
For `C=CCN1C(=O)/C(=c2\s/c(=C/c3ccc4c(c3)C3CCCC3N4Cc3ccccc3)c(=O)n2CC(=O)OCC)SC1=S` (stereo not shown) [(52)], the “Resolution ratio R” value [9] was 0.756, the “Peak position of M1 macrophage” value [10] was 3.90 and the “Peak position of M2 macrophage” value [10] was 1.68. The “Evaluation” value (rated from resolution R) was “A (The compound is very good in the subtype identification (namely, the resolution R is 0.5 or more))”.
For `CCC1=C(C)C2=C(C)c3c(C)c(CC)c(C)n3[B-](C#C[Si](C)(C)C)(C#C[Si](C)(C)C)[N+]2=C1C` [compound (154)], the “Resolution ratio R” value [11] was 0.160, the “Evaluation” value [12] was “B (the compound is good in the subtype identification (namely, the resolution R is 0.15 or more and less than 0.5))” and the “Peak position of M1 macrophage” value [13] was 1.25. The “Peak position of M2 macrophage” value [14] was 1.63.
`O=C(O)CCC(C(=O)O)N1C(=O)/C(=C\c2ccc3c(c2)C2CCCC2N3c2ccccc2)SC1=S` (stereo not shown) [(23)] was tested, and the “Resolution ratio R” value [9] was 0.185, the “Peak position of M1 macrophage” value [10] was 1.10 and the “Peak position of M2 macrophage” value [10] was 1.48. For the same compound, the “Evaluation” value (rated from resolution R) was “B (the compound is good in the subtype identification (namely, the resolution R is 0.15 or more and less than 0.5))”.
`O=C(O)CCN1C(=O)/C(=C\c2ccc3c(c2)C2CCCC2N3c2ccc(C=C(c3ccccc3)c3ccccc3)cc2)SC1=S` (stereo not shown) [(32)] was tested, and the “Resolution ratio R” value [9] was 0.476, the “Peak position of M1 macrophage” value [10] was 88.7 and the “Peak position of M2 macrophage” value [10] was 155. For the same compound, the “Evaluation” value (rated from resolution R) was “B (the compound is good in the subtype identification (namely, the resolution R is 0.15 or more and less than 0.5))”.
In the case of `CCOC(=O)CN1C(=O)/C(=C\c2ccc3c(c2)C2CCCC2N3c2ccccc2)SC1=S` (stereo not shown) [(48)], the “Resolution ratio R” value [9] is reported as 0.621, the “Peak position of M1 macrophage” value [10] is reported as 65.4 and the “Peak position of M2 macrophage” value [10] is reported as 9.74. The “Evaluation” value (rated from resolution R) was “A (The compound is very good in the subtype identification (namely, the resolution R is 0.5 or more))”.
With `O=C(O)CCCCCN1C(=O)/C(=C\c2ccc3c(c2)C2CCCC2N3c2ccccc2)SC1=S` (stereo not shown) [(17)] the “Resolution ratio R” value [9] was 0.577, the “Peak position of M1 macrophage” value [10] was 7.74 and the “Peak position of M2 macrophage” value [10] was 16.5. For the same compound, the “Evaluation” value (rated from resolution R) was “A (The compound is very good in the subtype identification (namely, the resolution R is 0.5 or more))”.
`Cc1cc(C)n2c1C=C1C=CC(CCC(=O)NN)=[N+]1[B-]2(F)F` [(166)] was tested, and the “Resolution ratio R” value [11] was 0.722, the “Evaluation” value [12] was “A (The compound is very good in the subtype identification (namely, the resolution R is 0.5 or more))” and the “Peak position of M1 macrophage” value [13] was 127. The “Peak position of M2 macrophage” value [14] was 56.3.
For `CC1(C)C(/C=C/C=C/C=C/C=C2\N(CCCCS(=O)(=O)[O-])c3ccccc3C2(C)C)=[N+](CCCCS(=O)(=O)[O-])c2ccccc21.[Na+]` [(90)], the “Resolution ratio R” value [1] was 0.321, the “Evaluation” value [2] was “B (the compound is good in the subtype identification (namely, the resolution R is 0.15 or more and less than 0.5))” and the “Peak position of M1 macrophage” value [3] was 0.86. For the same compound, the “Peak position of M2 macrophage” value [4] was 1.31.
`CCN(CC)c1ccc2cc(-c3nc4cc(C(=O)O)ccc4o3)c(=O)oc2c1` [(127)] was tested, and the “Resolution ratio R” value [5] was 0.381, the “Evaluation” value [6] was “B (the compound is good in the subtype identification (namely, the resolution R is 0.15 or more and less than 0.5))” and the “Peak position of M1 macrophage” value [7] was 3.99. The “Peak position of M2 macrophage” value [8] was 6.00.
`COC(=O)C(C)N1C(=O)/C(=C\c2ccc3c(c2)C2CCCC2N3c2ccc(OC)cc2)SC1=S` (stereo not shown) [(7)] was tested, and the “Resolution ratio R” value [9] was 0.567, the “Peak position of M1 macrophage” value [10] was 65.4 and the “Peak position of M2 macrophage” value [10] was 23.6. The “Evaluation” value (rated from resolution R) was “A (The compound is very good in the subtype identification (namely, the resolution R is 0.5 or more))”.
For `CN1/C(=C/C2=C([O-])C(=C/C3=[N+](C)c4ccccc4C3(C)C)/C2=O)C(C)(C)c2ccccc21` [compound (113)], the “Resolution ratio R” value [1] was 0.857, the “Evaluation” value [2] was “A (The compound is very good in the subtype identification (namely, the resolution R is 0.5 or more))” and the “Peak position of M1 macrophage” value [3] was 9.05. The “Peak position of M2 macrophage” value [4] was 21.39 and the “subtype more strongly stained” value (two compounds used in combination, each 1 μM) was “the M2 macrophage shows a higher fluorescence intensity in the APC-Cy7 channel than the M1 macrophage; also recorded: the M2 macrophages are more strongly stained than the M1 macrophages”.
`CCN1/C(=C\C=C\c2sc3ccccc3[n+]2CC)Sc2ccccc21` [(100)] was tested, and the “Resolution ratio R” value [1] was 0.372, the “Evaluation” value [2] was “B (the compound is good in the subtype identification (namely, the resolution R is 0.15 or more and less than 0.5))” and the “Peak position of M1 macrophage” value [3] was 16.41. For the same compound, the “Peak position of M2 macrophage” value [4] was 32.87.
With `CCOC(=O)CN1C(=O)/C(=C\c2cc(Br)c3c(c2)C2CCCC2N3c2ccc(Br)cc2)SC1=S` (stereo not shown) [(49)] the “Resolution ratio R” value [9] was 0.486, the “Peak position of M1 macrophage” value [10] was 3.26 and the “Peak position of M2 macrophage” value [10] was 5.02. For the same compound, the “Evaluation” value (rated from resolution R) was “B (the compound is good in the subtype identification (namely, the resolution R is 0.15 or more and less than 0.5))”.
`CCN1c2ccc(/C=C/c3sc4ccccc4[n+]3CC(=O)O)cc2C2CCCC21` (stereo not shown) [(65)] was tested, and the “Resolution ratio R” value [9] was 0.236, the “Peak position of M1 macrophage” value [10] was 2.96 and the “Peak position of M2 macrophage” value [10] was 4.67. The “Evaluation” value (rated from resolution R) was “B (the compound is good in the subtype identification (namely, the resolution R is 0.15 or more and less than 0.5))”.
With `CCN1/C(=C\C=C\C2=[N+](CC)c3ccccc3C23CCCCC3)C2(CCCCC2)c2ccccc21` [(99)] the “Resolution ratio R” value [1] was 0.673, the “Evaluation” value [2] was “A (The compound is very good in the subtype identification (namely, the resolution R is 0.5 or more))” and the “Peak position of M1 macrophage” value [3] was 191.14. For the same compound, the “Peak position of M2 macrophage” value [4] was 331.51.
